{"source": "paper PMC5218480", "about": "(PLoS ONE, 2017)", "test_system": "MV-4-11 cells", "experiment": "Gene expression microarray analysis (Affymetrix PrimeView) and GSEA", "type": "cell-based, human", "parameters": "RFU PODN (11730768_x_at) / Fold change /veh PODN (11730768_x_at) / RFU LINC00158 (11744669_a_at) / Fold change /veh LINC00158 (11744669_a_at) / RFU DUSP10 (11751237_a_at) / Fold change /veh DUSP10 (11751237_a_at) / RFU ID3 (11757404_x_at) / Fold change /veh ID3 (11757404_x_at) / RFU PLEKHG5 (11737974_s_at) / Fold change /veh PLEKHG5 (11737974_s_at) / RFU LRRC4B (11730491_at) / Fold change /veh LRRC4B (11730491_at) / RFU GIMAP4 (11747438_a_at) / Fold change /veh GIMAP4 (11747438_a_at) / RFU KRT8 (11758183_x_at) / Fold change /veh KRT8 (11758183_x_at) / RFU CNN1 (11734310_a_at) / Fold change /veh CNN1 (11734310_a_at) / RFU VPS37D (11726825_at) / Fold change /veh VPS37D (11726825_at) / RFU C10orf10 (11716522_x_at) / Fold change /veh C10orf10 (11716522_x_at) / RFU KIR2DL2 /// KIR2DL4 /// KIR2DL5A /// KIR2DL5B /// KIR2DS1 /// KIR2DS2 /// KIR2DS3 /// KIR2DS4 /// KIR3DL3 /// KIR3DL3 /// KIR3DS1 (11738374_at) / Fold change /veh KIR2DL2 /// KIR2DL4 /// KIR2DL5A /// KIR2DL5B /// KIR2DS1 /// KIR2DS2 /// KIR2DS3 /// KIR2DS4 /// KIR3DL3 /// KIR3DL3 /// KIR3DS1 (11738374_at) / RFU C1QL1 (11718748_at) / Fold change /veh C1QL1 (11718748_at) / RFU TMPRSS4 (11747572_a_at) / Fold change /veh TMPRSS4 (11747572_a_at) / RFU HAMP (11756126_x_at) / Fold change /veh HAMP (11756126_x_at) / RFU RNFT2 (11725882_a_at) / Fold change /veh RNFT2 (11725882_a_at) / RFU NR4A2 (11747474_a_at) / Fold change /veh NR4A2 (11747474_a_at) / RFU ABCC12 (11746883_a_at) / Fold change /veh ABCC12 (11746883_a_at) / RFU TMEM136 (11760407_x_at) / Fold change /veh TMEM136 (11760407_x_at) / RFU CLDN22 /// WWC2 (11732394_at) / Fold change /veh CLDN22 /// WWC2 (11732394_at) / RFU HLA-DPB1 (11760878_x_at) / Fold change /veh HLA-DPB1 (11760878_x_at) / RFU SPINT1 (11716480_a_at) / Fold change /veh SPINT1 (11716480_a_at) / RFU GAP43 (11754022_s_at) / Fold change /veh GAP43 (11754022_s_at) / RFU A4GNT (11735810_at) / Fold change /veh A4GNT (11735810_at) / RFU PRB3 (11715151_x_at) / Fold change /veh PRB3 (11715151_x_at) / RFU TUBB4B (11761932_at) / Fold change /veh TUBB4B (11761932_at) / RFU CAPN14 (11732068_a_at) / Fold change /veh CAPN14 (11732068_a_at) / RFU TMCC2 (11721928_a_at) / Fold change /veh TMCC2 (11721928_a_at) / RFU IRGQ (11745062_a_at) / Fold change /veh IRGQ (11745062_a_at) / RFU FAM174B (11720279_a_at) / Fold change /veh FAM174B (11720279_a_at) / RFU TMPRSS4 (11748680_a_at) / Fold change /veh TMPRSS4 (11748680_a_at) / RFU FAM212B (11763350_a_at) / Fold change /veh FAM212B (11763350_a_at) / RFU PLEKHG5 (11743358_a_at) / Fold change /veh PLEKHG5 (11743358_a_at) / RFU ZSCAN30 (11745921_a_at) / Fold change /veh ZSCAN30 (11745921_a_at) / RFU CMKLR1 (11741424_a_at) / Fold change /veh CMKLR1 (11741424_a_at) / RFU LOC101060620 /// MAPK8IP1 (11723275_at) / Fold change /veh LOC101060620 /// MAPK8IP1 (11723275_at) / RFU SPTSSB (11747773_x_at) / Fold change /veh SPTSSB (11747773_x_at) / RFU PRSS12 (11739890_at) / Fold change /veh PRSS12 (11739890_at) / RFU BIN1 (11741810_x_at) / Fold change /veh BIN1 (11741810_x_at) / RFU WNT11 (11732464_a_at) / Fold change /veh WNT11 (11732464_a_at) / RFU C10orf10 (11716521_a_at) / Fold change /veh C10orf10 (11716521_a_at) / RFU C5orf56 (11738089_at) / Fold change /veh C5orf56 (11738089_at) / RFU CYB561 (11721691_x_at) / Fold change /veh CYB561 (11721691_x_at) / RFU ANKRD19P (11752326_a_at) / Fold change /veh ANKRD19P (11752326_a_at) / RFU OR2T12 /// OR2T33 /// OR2T8 (11738714_s_at) / Fold change /veh OR2T12 /// OR2T33 /// OR2T8 (11738714_s_at) / RFU VCAN (11748164_a_at) / Fold change /veh VCAN (11748164_a_at) / RFU JSRP1 (11732532_at) / Fold change /veh JSRP1 (11732532_at) / RFU KRTAP10-11 (11738290_x_at) / Fold change /veh KRTAP10-11 (11738290_x_at) / RFU MYO3A (11730013_a_at) / Fold change /veh MYO3A (11730013_a_at) / RFU EBF3 (11725865_a_at) / Fold change /veh EBF3 (11725865_a_at) / RFU CAMK2N1 (11719241_x_at) / Fold change /veh CAMK2N1 (11719241_x_at) / RFU C5orf56 (11738088_a_at) / Fold change /veh C5orf56 (11738088_a_at) / RFU OLFML3 (11715873_a_at) / Fold change /veh OLFML3 (11715873_a_at) / RFU LOC100653217 /// NTM (11731650_a_at) / Fold change /veh LOC100653217 /// NTM (11731650_a_at) / RFU MAPK11 (11762145_a_at) / Fold change /veh MAPK11 (11762145_a_at) / RFU FIZ1 (11724087_x_at) / Fold change /veh FIZ1 (11724087_x_at) / RFU OASL (11726364_x_at) / Fold change /veh OASL (11726364_x_at) / RFU SOX15 (11748057_x_at) / Fold change /veh SOX15 (11748057_x_at) / RFU CD79A (11719716_a_at) / Fold change /veh CD79A (11719716_a_at) / RFU HIST1H1D (11736915_at) / Fold change /veh HIST1H1D (11736915_at) / RFU CASKIN2 (11723855_a_at) / Fold change /veh CASKIN2 (11723855_a_at) / RFU LOC730098 (11760151_x_at) / Fold change /veh LOC730098 (11760151_x_at) / RFU OR4N2 (11742367_at) / Fold change /veh OR4N2 (11742367_at) / RFU PRRT2 (11749266_a_at) / Fold change /veh PRRT2 (11749266_a_at) / RFU SNX32 (11753110_a_at) / Fold change /veh SNX32 (11753110_a_at) / RFU CDHR5 (11726645_a_at) / Fold change /veh CDHR5 (11726645_a_at) / RFU RCAN1 (11760418_a_at) / Fold change /veh RCAN1 (11760418_a_at) / RFU FAM167A (11723789_a_at) / Fold change /veh FAM167A (11723789_a_at) / RFU FAM26E (11764081_at) / Fold change /veh FAM26E (11764081_at) / RFU ISYNA1 (11749810_s_at) / Fold change /veh ISYNA1 (11749810_s_at) / RFU ACY1 (11761880_at) / Fold change /veh ACY1 (11761880_at) / RFU 11764098_at / Fold change /veh 11764098_at / RFU SAMD14 (11745864_x_at) / Fold change /veh SAMD14 (11745864_x_at) / RFU NPB (11741838_a_at) / Fold change /veh NPB (11741838_a_at) / RFU TMPRSS6 (11731388_a_at) / Fold change /veh TMPRSS6 (11731388_a_at) / RFU KRTAP10-2 (11738614_at) / Fold change /veh KRTAP10-2 (11738614_at) / RFU ARHGAP8 /// PRR5-ARHGAP8 (11727945_x_at) / Fold change /veh ARHGAP8 /// PRR5-ARHGAP8 (11727945_x_at) / RFU KRTAP5-7 /// NADSYN1 (11734609_at) / Fold change /veh KRTAP5-7 /// NADSYN1 (11734609_at) / RFU RASL12 (11751679_a_at) / Fold change /veh RASL12 (11751679_a_at) / RFU CDKN2B (11736163_a_at) / Fold change /veh CDKN2B (11736163_a_at) / RFU PRF1 (11729649_at) / Fold change /veh PRF1 (11729649_at) / RFU, ZNF638 /// ZNF638-IT1 / Fold change vs veh, ZNF638 /// ZNF638-IT1 / RFU, PANK3 / Fold change vs veh, PANK3 / RFU, SH3YL1 / Fold change vs veh, SH3YL1 / RFU, ZEB2 / Fold change vs veh, ZEB2 / RFU, NRIP1 / Fold change vs veh, NRIP1 / RFU, PTTG1IP / Fold change vs veh, PTTG1IP / RFU, CAPN2 / Fold change vs veh, CAPN2 / RFU, MED14 / Fold change vs veh, MED14 / RFU, SNORA58 / Fold change vs veh, SNORA58 / RFU, C1orf63 / Fold change vs veh, C1orf63 / RFU, LRRFIP1 / Fold change vs veh, LRRFIP1 / RFU, NDUFAF7 / Fold change vs veh, NDUFAF7 / RFU, SLC12A2 / Fold change vs veh, SLC12A2 / RFU, IBTK / Fold change vs veh, IBTK / RFU, ESF1 / Fold change vs veh, ESF1 / Fold change vs veh, TMEM50B / RFU, TAOK1 / Fold change vs veh, TAOK1 / RFU, ACBD3 / Fold change vs veh, ACBD3 / RFU, TMA16 / Fold change vs veh, TMA16 / RFU, RWDD3 / Fold change vs veh, RWDD3 / RFU, BCAT1 / Fold change vs veh, BCAT1 / RFU, EDEM3 / Fold change vs veh, EDEM3 / RFU, TMEM33 / Fold change vs veh, TMEM33 / RFU, WDR75 / Fold change vs veh, WDR75 / RFU, AHCTF1 / Fold change vs veh, AHCTF1 / RFU, TFRC / Fold change vs veh, TFRC / RFU, ZDHHC17 / Fold change vs veh, ZDHHC17 / RFU, NOM1 / Fold change vs veh, NOM1 / RFU, ARL8B / Fold change vs veh, ARL8B / RFU, ZBTB11 / Fold change vs veh, ZBTB11 / RFU, TAMM41 / Fold change vs veh, TAMM41 / RFU, KIAA1704 /// LOC100996395 / Fold change vs veh, KIAA1704 /// LOC100996395 / RFU, ING1 / Fold change vs veh, ING1 / RFU, TRMT61B / Fold change vs veh, TRMT61B / RFU, FUBP3 / Fold change vs veh, FUBP3 / RFU, TP53 / Fold change vs veh, TP53 / RFU, TNKS2 / Fold change vs veh, TNKS2 / RFU, ZFP14 / Fold change vs veh, ZFP14 / RFU, ACTR2 / Fold change vs veh, ACTR2 / RFU, PPP3R1 / Fold change vs veh, PPP3R1 / RFU, PIK3R1 / Fold change vs veh, PIK3R1 / RFU, HNRNPA1 / Fold change vs veh, HNRNPA1 / RFU, RNF170 / Fold change vs veh, RNF170 / RFU, ZNF28 / Fold change vs veh, ZNF28 / RFU, RNGTT / Fold change vs veh, RNGTT / RFU, OGT / Fold change vs veh, OGT / RFU, BRD1 / Fold change vs veh, BRD1 / RFU, MARS / Fold change vs veh, MARS / RFU, ZNF655 / Fold change vs veh, ZNF655 / RFU, FAHD1 / Fold change vs veh, FAHD1 / RFU, BDP1 / Fold change vs veh, BDP1 / RFU, LRRCC1 / Fold change vs veh, LRRCC1 / RFU, ARID1A / Fold change vs veh, ARID1A / RFU, ZNF146 / Fold change vs veh, ZNF146 / RFU, ZNF330 / Fold change vs veh, ZNF330 / RFU, GPN3 / Fold change vs veh, GPN3 / RFU, C9orf123 / Fold change vs veh, C9orf123 / RFU, N4BP2L2 / Fold change vs veh, N4BP2L2 / RFU, ARFIP1 / Fold change vs veh, ARFIP1 / RFU, FAM179B / Fold change vs veh, FAM179B / RFU, BCL10 / Fold change vs veh, BCL10 / RFU, UHRF1BP1L / Fold change vs veh, UHRF1BP1L / RFU, BET1 / Fold change vs veh, BET1 / RFU, CNOT2 / Fold change vs veh, CNOT2 / RFU, ZNF268 / Fold change vs veh, ZNF268 / Fold change vs veh, ZNF507 / RFU, DGCR2 / Fold change vs veh, DGCR2 / RFU, WDSUB1 / Fold change vs veh, WDSUB1 / Fold change vs veh, HSP90B1 /// MIR3652 / RFU, ADSS / Fold change vs veh, ADSS / RFU, GK / Fold change vs veh, GK / RFU, ZNF148 / Fold change vs veh, ZNF148 / RFU, TAF9 / Fold change vs veh, TAF9 / RFU, SLC1A5 / Fold change vs veh, SLC1A5 / RFU, SLMO2 / Fold change vs veh, SLMO2 / RFU, ABCC4 / Fold change vs veh, ABCC4 / RFU, LOC101060439 /// RAP1B / Fold change vs veh, LOC101060439 /// RAP1B / RFU, RFX7 / Fold change vs veh, RFX7 / RFU, GTPBP10 / Fold change vs veh, GTPBP10 / RFU, CNEP1R1 / Fold change vs veh, CNEP1R1 / RFU, BIVM-ERCC5 /// ERCC5 / Fold change vs veh, BIVM-ERCC5 /// ERCC5 / RFU, ILF3 / Fold change vs veh, ILF3 / RFU 11762660_at / Fold change /veh 11762660_at / RFU VCAN (11757783_s_at) / Fold change /veh VCAN (11757783_s_at) / RFU DDX43 (11728927_at) / Fold change /veh DDX43 (11728927_at) / RFU KRT8 (11758188_x_at) / Fold change /veh KRT8 (11758188_x_at) / RFU NKD1 (11759106_at) / Fold change /veh NKD1 (11759106_at) / RFU SRD5A1 (11742802_a_at) / Fold change /veh SRD5A1 (11742802_a_at) / RFU TPSAB1 /// TPSB2 (11721975_s_at) / Fold change /veh TPSAB1 /// TPSB2 (11721975_s_at) / RFU GSTM3 (11746129_a_at) / Fold change /veh GSTM3 (11746129_a_at) / RFU IL23R (11737362_x_at) / Fold change /veh IL23R (11737362_x_at) / RFU TMEM51 (11727254_a_at) / Fold change /veh TMEM51 (11727254_a_at) / RFU PIWIL2 (11732686_x_at) / Fold change /veh PIWIL2 (11732686_x_at) / RFU ORM1 (11744905_x_at) / Fold change /veh ORM1 (11744905_x_at) / RFU CCDC152 (11743942_at) / Fold change /veh CCDC152 (11743942_at) / RFU ECM1 (11717891_a_at) / Fold change /veh ECM1 (11717891_a_at) / RFU IL23R (11748794_a_at) / Fold change /veh IL23R (11748794_a_at) / RFU TNFAIP8L3 (11732012_x_at) / Fold change /veh TNFAIP8L3 (11732012_x_at) / RFU MBOAT4 (11741988_at) / Fold change /veh MBOAT4 (11741988_at) / RFU 11764193_at / Fold change /veh 11764193_at / RFU TMEM53 (11763286_at) / Fold change /veh TMEM53 (11763286_at) / RFU MAGEB2 (11727129_at) / Fold change /veh MAGEB2 (11727129_at) / RFU TMEM200A (11744735_a_at) / Fold change /veh TMEM200A (11744735_a_at) / RFU CCDC152 (11751479_a_at) / Fold change /veh CCDC152 (11751479_a_at) / RFU FAM211A (11726209_a_at) / Fold change /veh FAM211A (11726209_a_at) / RFU RGS16 (11746705_a_at) / Fold change /veh RGS16 (11746705_a_at) / RFU VCAN (11755009_s_at) / Fold change /veh VCAN (11755009_s_at) / RFU RHOB (11743442_s_at) / Fold change /veh RHOB (11743442_s_at) / RFU RGS16 (11720943_a_at) / Fold change /veh RGS16 (11720943_a_at) / RFU RGS16 (11720944_at) / Fold change /veh RGS16 (11720944_at) / RFU, VPS4B / Fold change vs veh, VPS4B / RFU, CREB1 / Fold change vs veh, CREB1 / RFU, DNAJC13 / Fold change vs veh, DNAJC13 / RFU, GNAQ / Fold change vs veh, GNAQ / RFU, CDK5R1 / Fold change vs veh, CDK5R1 / RFU, ZRANB3 / Fold change vs veh, ZRANB3 / RFU, CUL4A / Fold change vs veh, CUL4A / RFU, CCNY / Fold change vs veh, CCNY / RFU, UFL1 / Fold change vs veh, UFL1 / RFU, COG3 / Fold change vs veh, COG3 / RFU, DIAPH2 / Fold change vs veh, DIAPH2 / RFU, SKA2 / Fold change vs veh, SKA2 / RFU, AFF3 / Fold change vs veh, AFF3 / RFU, LMF1 / Fold change vs veh, LMF1 / RFU, IPO11 / Fold change vs veh, IPO11 / RFU, DFFB / Fold change vs veh, DFFB / RFU, FOXP1 / Fold change vs veh, FOXP1 / RFU, CARD8 / Fold change vs veh, CARD8 / RFU, STRN3 / Fold change vs veh, STRN3 / RFU, ADK / Fold change vs veh, ADK / RFU, RASSF2 / Fold change vs veh, RASSF2 / RFU, WIPF1 / Fold change vs veh, WIPF1 / RFU, LARP1B / Fold change vs veh, LARP1B / RFU, RASA1 / Fold change vs veh, RASA1 / RFU, RB1 / Fold change vs veh, RB1 / RFU, PPFIA1 / Fold change vs veh, PPFIA1 / RFU, MAT2A / Fold change vs veh, MAT2A / RFU, CCT5 / Fold change vs veh, CCT5 / RFU, WDR92 / Fold change vs veh, WDR92 / RFU, CUX1 / Fold change vs veh, CUX1 / RFU, TTC7A / Fold change vs veh, TTC7A / RFU, TMEM135 / Fold change vs veh, TMEM135 / RFU, DEPTOR / Fold change vs veh, DEPTOR / RFU, CPM / Fold change vs veh, CPM / RFU, DNAJB6 / Fold change vs veh, DNAJB6 / RFU, CACNA2D3 / Fold change vs veh, CACNA2D3 / RFU, DTX4 / Fold change vs veh, DTX4 / RFU, TFCP2 / Fold change vs veh, TFCP2 / RFU, GMCL1 /// GMCL1P1 / Fold change vs veh, GMCL1 /// GMCL1P1 / RFU, AEBP2 / Fold change vs veh, AEBP2 / RFU, SNHG1 /// SNORD22 /// SNORD25 /// SNORD26 /// SNORD27 /// SNORD28 /// SNORD29 /// SNORD31 / Fold change vs veh, SNHG1 /// SNORD22 /// SNORD25 /// SNORD26 /// SNORD27 /// SNORD28 /// SNORD29 /// SNORD31 / Fold change (Aza/veh), C12orf56 (ProbeSet 11735607_a_at) / Fold change (ACY-1035/veh), C12orf56 (ProbeSet 11735607_a_at) / Fold change (Aza/veh), FGFR1OP (ProbeSet 11751329_s_at) / Fold change (ACY-1035/veh), FGFR1OP (ProbeSet 11751329_s_at) / Fold change (Aza/veh), VPS36 (ProbeSet 11739960_a_at) / Fold change (ACY-1035/veh), VPS36 (ProbeSet 11739960_a_at) / RFU SYPL1 (11715823_x_at) / Fold change /veh SYPL1 (11715823_x_at) / RFU IGFBP7 (11715501_s_at) / Fold change /veh IGFBP7 (11715501_s_at) / RFU REEP3 (11722064_at) / Fold change /veh REEP3 (11722064_at) / RFU IGLL1 (11728026_x_at) / Fold change /veh IGLL1 (11728026_x_at): dose or concentration left out as unconfirmed", "details": "ProbeSet 11725901_x_at; LIST B"}
{"smiles": "Nc1ccc(-c2cccs2)cc1NC(=O)c1ccc2c(c1)cc(C1CC1)n2CCN1CCOCC1", "note": "[ACY-1035]", "values": [{"measurement": "RFU, RWDD3", "value": 19.72, "unit": "RFU"}]}
